Assay results published in patent publication US6939534B2, “Method to treat pulmonary hypoplasia in the newborn” (GenoMed, LLC, priority 2001, dated 2005).

Legend:
[1] = inhaled; cited from earlier work
type II pneumocytes = conditions: applied to type II pneumocytes in culture; cited from earlier work
[2] = animal models; cited from earlier work
[3] = Stability under acidification (pH 1-2) and heating (100° C. for 5 min); type: physicochemical; conditions: acidification to pH 1-2, heating to 100° C. for 5 min
Description: Since the EGF receptor can be activated by either EGF or transforming growth factor-α (TGF-α), and TGF-α is important in fetal development, and is also elaborated by the distal nephron, the EGF and TGF-α content of human amniotic fluid was measured, using specific radioimmunoassays and immunoprecipitation and immunoblotting. […] EGF, but not TGF-α, is stable under these conditions. […] In neonates, mature EGF (6 kD) is the predominant form in urine.
No significant concentration (<0.6 ng/ml) of TGF-α or EGF in human amniotic fluid was detectable directly by RIA or RRA.

[N]=O [inhaled nitric oxide, nitric oxide]
half-life [1]: very short

epidermal growth factor [EGF]
production of surfactant (type II pneumocytes): stimulates production of surfactant | toxicity [2]: no toxicity | stability [3]: stable
